Paper PMC7614683, “A small molecule PI3Kα activator for cardioprotection and neuroregeneration” (Nature, 2023)

Molecular target: T1, full length p110α/p85α (Homo sapiens, UniProt P42336)
T1 construct: Full-length human p110α was expressed either in a complex with full-length human p85α (for HTS, biochemistry and HDX-MS); 6xHis tag followed by TEV protease site (N); host or cells: Spodoptera frugiperda Sf9, baculovirus
Assay: HDX-MS
Assay type: binding
Method: Sample preparation: HDX-MS experiments were carried out as described previously. […] In total, three biological replicates, i.e. three separate protein preparations, each with exchange experiments carried out in triplicate were conducted. Data presented in the manuscript is a single biological replicate. Data acquisition and analysis were as follows: Each sample was thawed and injected onto an M-Class Acquity UPLC with HDX Technology (Waters) kept at 0.1°C. Proteins were digested in-line using an Enzymate Pepsin Column (Waters, #186007233) at 15°C for 2 min at 200 μl/min. Peptic peptides were then eluted onto an Acquity UPLC BEH C18 Column (Waters, #186002346) equilibrated in Pepsin-A buffer (0.1% formic acid) and separated using a 5-35% gradient of Pepsin-B buffer (0.1% formic acid, 99% acetonitrile) over 7 min at a flowrate of 40 μl/min. Data were collected on a Waters Cyclic IMS, with an electrospray ionisation source, from 50-2000 m/z. Data were collected in the HDMS^E mode. A single pass of the cyclic IMS was conducted. A “blank” sample of protein dilution buffer with quench was run between samples, and carry-over of peptides was routinely monitored. Five replicates were used to identify non-deuterated peptides. Criteria used to include peptides in the HDX-MS dataset were: minimum intensity 5000, minimum sequence length 5, maximum sequence length 25, a minimum of 3 fragment ions, a minimum of 0.1 products per amino acid, a minimum score of 6.62, a maximum MH+ Error of 10 ppm, identification in at least two datasets with a retention time RSD of less than 10%. Data was analysed using Protein Lynx Global Server (Waters) and DynamX (Waters). All peptides were manually inspected for EX1 kinetics and sufficient quality of the peptide envelope. Data quality, experiment design, and reporting of data meets the criteria as determined by the HDX-MS community. Uptake files were created using Baryonyx. Data are available via ProteomeXchange with identifier PXD037721.

[1] = PK3CA_HUMAN peptide 334-341, time point 1 of 5
[2] = PK3CA_HUMAN peptide 334-341, time point 2 of 5
[3] = PK3CA_HUMAN peptide 334-341, time point 3 of 5
[4] = PK3CA_HUMAN peptide 334-341, time point 4 of 5
[5] = PK3CA_HUMAN peptide 334-341, time point 5 of 5
[6] = PK3CA_HUMAN peptide 342-356, time point 1 of 5
[7] = PK3CA_HUMAN peptide 342-356, time point 2 of 5
[8] = PK3CA_HUMAN peptide 342-356, time point 3 of 5
[9] = PK3CA_HUMAN peptide 342-356, time point 4 of 5
[10] = PK3CA_HUMAN peptide 342-356, time point 5 of 5
[11] = PK3CA_HUMAN peptide 356-368, time point 1 of 5
[12] = PK3CA_HUMAN peptide 356-368, time point 2 of 5
[13] = PK3CA_HUMAN peptide 356-368, time point 3 of 5
[14] = PK3CA_HUMAN peptide 356-368, time point 4 of 5
[15] = PK3CA_HUMAN peptide 356-368, time point 5 of 5
[16] = PK3CA_HUMAN peptide 369-380, time point 1 of 5
[17] = PK3CA_HUMAN peptide 369-380, time point 2 of 5
[18] = PK3CA_HUMAN peptide 369-380, time point 3 of 5
[19] = PK3CA_HUMAN peptide 369-380, time point 4 of 5
[20] = PK3CA_HUMAN peptide 369-380, time point 5 of 5
[21] = PK3CA_HUMAN peptide 371-380, time point 1 of 5
[22] = PK3CA_HUMAN peptide 371-380, time point 2 of 5
[23] = PK3CA_HUMAN peptide 371-380, time point 3 of 5
[24] = PK3CA_HUMAN peptide 371-380, time point 4 of 5
[25] = PK3CA_HUMAN peptide 371-380, time point 5 of 5

T1 sequence (P42336 whole entry): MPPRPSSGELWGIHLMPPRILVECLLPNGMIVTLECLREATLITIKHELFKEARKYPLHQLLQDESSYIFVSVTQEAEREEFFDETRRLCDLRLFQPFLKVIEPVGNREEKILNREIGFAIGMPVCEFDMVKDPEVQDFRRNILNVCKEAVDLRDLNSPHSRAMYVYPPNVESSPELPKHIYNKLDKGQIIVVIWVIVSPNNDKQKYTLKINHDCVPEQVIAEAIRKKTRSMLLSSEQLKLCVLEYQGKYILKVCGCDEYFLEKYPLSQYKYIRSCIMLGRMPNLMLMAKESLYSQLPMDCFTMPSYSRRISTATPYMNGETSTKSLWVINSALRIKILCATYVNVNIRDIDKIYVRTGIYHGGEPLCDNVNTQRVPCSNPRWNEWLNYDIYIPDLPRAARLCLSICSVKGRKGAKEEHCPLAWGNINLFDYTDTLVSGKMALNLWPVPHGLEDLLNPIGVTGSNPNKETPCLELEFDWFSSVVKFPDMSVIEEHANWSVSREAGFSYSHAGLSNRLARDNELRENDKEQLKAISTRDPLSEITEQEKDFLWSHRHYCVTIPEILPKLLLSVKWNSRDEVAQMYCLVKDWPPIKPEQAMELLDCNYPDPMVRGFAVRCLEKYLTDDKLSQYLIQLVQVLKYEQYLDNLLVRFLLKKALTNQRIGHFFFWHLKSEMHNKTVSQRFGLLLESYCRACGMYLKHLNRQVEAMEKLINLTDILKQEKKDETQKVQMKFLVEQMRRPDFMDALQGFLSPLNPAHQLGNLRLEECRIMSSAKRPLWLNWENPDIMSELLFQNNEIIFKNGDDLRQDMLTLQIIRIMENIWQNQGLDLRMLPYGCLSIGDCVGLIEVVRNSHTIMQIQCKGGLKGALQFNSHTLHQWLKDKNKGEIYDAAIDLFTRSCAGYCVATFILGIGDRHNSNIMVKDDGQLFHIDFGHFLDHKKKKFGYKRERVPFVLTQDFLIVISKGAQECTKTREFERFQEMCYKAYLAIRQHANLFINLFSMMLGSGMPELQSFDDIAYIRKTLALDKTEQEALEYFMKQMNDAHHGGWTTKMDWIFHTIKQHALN
T1 sequence (P27986 whole entry partner): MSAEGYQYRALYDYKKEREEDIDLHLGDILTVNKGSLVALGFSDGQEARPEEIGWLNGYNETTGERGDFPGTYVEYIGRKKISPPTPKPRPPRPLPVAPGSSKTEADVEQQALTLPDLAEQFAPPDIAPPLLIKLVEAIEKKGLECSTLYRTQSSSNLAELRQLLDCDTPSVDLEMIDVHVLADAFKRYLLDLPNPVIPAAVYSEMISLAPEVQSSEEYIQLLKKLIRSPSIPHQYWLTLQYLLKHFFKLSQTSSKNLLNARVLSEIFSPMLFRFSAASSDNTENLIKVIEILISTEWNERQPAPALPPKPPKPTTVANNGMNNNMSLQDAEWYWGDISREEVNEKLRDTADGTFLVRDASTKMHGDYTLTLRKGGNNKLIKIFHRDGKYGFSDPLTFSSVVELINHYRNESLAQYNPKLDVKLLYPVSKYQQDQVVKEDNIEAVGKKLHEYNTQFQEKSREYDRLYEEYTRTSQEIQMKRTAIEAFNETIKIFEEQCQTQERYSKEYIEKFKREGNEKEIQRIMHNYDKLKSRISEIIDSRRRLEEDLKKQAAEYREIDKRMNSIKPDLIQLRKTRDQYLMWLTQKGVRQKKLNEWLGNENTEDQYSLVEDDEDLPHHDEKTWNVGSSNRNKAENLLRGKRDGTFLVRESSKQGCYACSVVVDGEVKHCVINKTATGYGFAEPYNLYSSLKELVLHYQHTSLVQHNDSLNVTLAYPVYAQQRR

With `CCN1CCN(c2ccc(Nc3cc(Nc4cccc5c4N(C(C)=O)CC5)ccn3)cc2)CC1` [Compound 1938] the “HDX difference (Da)” value (PK3CA_HUMAN peptide 326-333, time point 5 of 5) was -0.29 Da, the “HDX difference (%D)” value [1] was -1.6% and the “HDX difference (Da)” value [1] was -0.11 Da. The “HDX difference (%D)” value [2] was -0.186%, the “HDX difference (Da)” value [2] was -0.013 Da and the “HDX difference (%D)” value [3] was -0.0541%. For the same molecule, the “HDX difference (Da)” value [3] was -0.00379 Da, the “HDX difference (%D)” value [4] was 0.367% and the “HDX difference (Da)” value [4] was 0.0257 Da. The “HDX difference (%D)” value [5] was 0.162%, the “HDX difference (Da)” value [5] was 0.0113 Da and the “HDX difference (%D)” value [6] was -1.7%. The “HDX difference (Da)” value [6] was -0.24 Da, the “HDX difference (%D)” value [7] was 0.845% and the “HDX difference (Da)” value [7] was 0.12 Da. For the same molecule, the “HDX difference (%D)” value [8] was 0.00161%, the “HDX difference (Da)” value [8] was 0.000225 Da and the “HDX difference (%D)” value [9] was 1.1%. The “HDX difference (Da)” value [9] was 0.16 Da, the “HDX difference (%D)” value [10] was 0.6% and the “HDX difference (Da)” value [10] was 0.09 Da. For the same molecule, the “HDX difference (%D)” value [11] was -0.8%, the “HDX difference (Da)” value [11] was -0.10 Da and the “HDX difference (%D)” value [12] was -1.0%. The “HDX difference (Da)” value [12] was -0.12 Da, the “HDX difference (%D)” value [13] was 0.8% and the “HDX difference (Da)” value [13] was 0.09 Da. The “HDX difference (%D)” value [14] was 0.0672%, the “HDX difference (Da)” value [14] was 0.00807 Da and the “HDX difference (%D)” value [15] was 0.6%. For the same molecule, the “HDX difference (Da)” value [15] was 0.0745 Da, the “HDX difference (%D)” value [16] was -2.7% and the “HDX difference (Da)” value [16] was -0.30 Da. For the same molecule, the “HDX difference (%D)” value [17] was 1.2%, the “HDX difference (Da)” value [17] was 0.14 Da and the “HDX difference (%D)” value [18] was -1.1%. The “HDX difference (Da)” value [18] was -0.12 Da, the “HDX difference (%D)” value [19] was -0.8% and the “HDX difference (Da)” value [19] was -0.08 Da. For the same molecule, the “HDX difference (%D)” value [20] was 0.6%, the “HDX difference (Da)” value [20] was 0.07 Da and the “HDX difference (%D)” value [21] was -3.7%. For the same molecule, the “HDX difference (Da)” value [21] was -0.33 Da, the “HDX difference (%D)” value [22] was -0.454% and the “HDX difference (Da)” value [22] was -0.04 Da. The “HDX difference (%D)” value [23] was -1.7%, the “HDX difference (Da)” value [23] was -0.15 Da and the “HDX difference (%D)” value [24] was -2.6%. The “HDX difference (Da)” value [24] was -0.23 Da, the “HDX difference (%D)” value [25] was 0.329% and the “HDX difference (Da)” value [25] was 0.03 Da. For the same molecule, the “HDX difference, percentage” value (PK3CA_HUMAN peptide 457-466, time column 1 of 5, deuterium exchange time 0.005) was -0.467%, the “HDX difference, percentage” value (PK3CA_HUMAN peptide 457-466, time column 2 of 5, deuterium exchange time 0.05) was -0.449% and the “HDX difference, percentage” value (PK3CA_HUMAN peptide 457-466, time column 3 of 5, deuterium exchange time 0.5) was 0.346%. The “HDX difference, percentage” value (PK3CA_HUMAN peptide 457-466, time column 4 of 5, deuterium exchange time 5) was -0.9%, the “HDX difference, percentage” value (PK3CA_HUMAN peptide 457-466, time column 5 of 5) was -1.0% and the “HDX difference, percentage” value (PK3CA_HUMAN peptide 467-476, time column 1 of 5, deuterium exchange time 0.005) was -1.4%. For the same molecule, the “HDX difference, percentage” value (PK3CA_HUMAN peptide 467-476, time column 2 of 5, deuterium exchange time 0.05) was -0.5%, the “HDX difference, percentage” value (PK3CA_HUMAN peptide 467-476, time column 3 of 5, deuterium exchange time 0.5) was -0.7% and the “HDX difference, percentage” value (PK3CA_HUMAN peptide 467-476, time column 4 of 5, deuterium exchange time 5) was -0.9%. The “HDX difference, percentage” value (PK3CA_HUMAN peptide 467-476, time column 5 of 5) was -0.552%, the “HDX difference, percentage” value (PK3CA_HUMAN peptide 477-486, time column 1 of 5, deuterium exchange time 0.005) was -1.6% and the “HDX difference, percentage” value (PK3CA_HUMAN peptide 477-486, time column 2 of 5, deuterium exchange time 0.05) was 0.186%. The “HDX difference, percentage” value (PK3CA_HUMAN peptide 477-486, time column 3 of 5, deuterium exchange time 0.5) was 0.327%, the “HDX difference, percentage” value (PK3CA_HUMAN peptide 477-486, time column 4 of 5, deuterium exchange time 5) was -0.0919% and the “HDX difference, percentage” value (PK3CA_HUMAN peptide 477-486, time column 5 of 5) was 0.0363%. For the same molecule, the “HDX difference, percentage” value (PK3CA_HUMAN peptide 487-495, time column 1 of 5, deuterium exchange time 0.005) was -0.747%, the “HDX difference, percentage” value (PK3CA_HUMAN peptide 487-495, time column 2 of 5, deuterium exchange time 0.05) was 0.4% and the “HDX difference, percentage” value (PK3CA_HUMAN peptide 487-495, time column 3 of 5, deuterium exchange time 0.5) was 0.0115%. For the same molecule, the “HDX difference, percentage” value (PK3CA_HUMAN peptide 487-495, time column 4 of 5, deuterium exchange time 5) was -0.8%, the “HDX difference, percentage” value (PK3CA_HUMAN peptide 487-495, time column 5 of 5) was -0.2% and the “HDX difference, percentage” value (PK3CA_HUMAN peptide 487-498, time column 1 of 5, deuterium exchange time 0.005) was -0.239%. For the same molecule, the “HDX difference, percentage” value (PK3CA_HUMAN peptide 487-498, time column 2 of 5, deuterium exchange time 0.05) was -0.449%, the “HDX difference, percentage” value (PK3CA_HUMAN peptide 487-498, time column 3 of 5, deuterium exchange time 0.5) was 0.176% and the “HDX difference, percentage” value (PK3CA_HUMAN peptide 487-498, time column 4 of 5, deuterium exchange time 5) was -1.0%.
